In patent US11633459B2, “GIP derivatives and uses thereof” (priority 2018, dated 2023):
*1 amine or outer side, *2 acyl side, *3 side chain or, on linkers, in order; H or OH if unused. Where a SMILES comes first, the peptide text is derived from it. Where no end group is shown, it is not given here. Side-chain parts run from the residue outwards. [ ]: non-standard residue; d: D form. The star is where a group is joined. X1 = O=C(O)CCCCCCCCCCCCCCCCCCC(=O)NCC1CCC(C(=O)*)CC1; C18 diacid = O=C(O)CCCCCCCCCCCCCCCCC(=O)*; γGlu = O=C(O)[C@H](CCC(=O)[*:2])N[*:1]; Nle = CCCC[C@H](N)C(=O)O; AEEA = NCCOCCOCC(=O)O; Aib = CC(C)(N)C(=O)O

Molecular target: T1, human GIP receptor (Homo sapiens, UniProt P48546)
T1 construct: expressed in transfected cells; host or cells: BHK cells (parent line BHKTS13), clone BHK CRE luc2P hGIPR clone #5
T1 sequence (P48546 22-466): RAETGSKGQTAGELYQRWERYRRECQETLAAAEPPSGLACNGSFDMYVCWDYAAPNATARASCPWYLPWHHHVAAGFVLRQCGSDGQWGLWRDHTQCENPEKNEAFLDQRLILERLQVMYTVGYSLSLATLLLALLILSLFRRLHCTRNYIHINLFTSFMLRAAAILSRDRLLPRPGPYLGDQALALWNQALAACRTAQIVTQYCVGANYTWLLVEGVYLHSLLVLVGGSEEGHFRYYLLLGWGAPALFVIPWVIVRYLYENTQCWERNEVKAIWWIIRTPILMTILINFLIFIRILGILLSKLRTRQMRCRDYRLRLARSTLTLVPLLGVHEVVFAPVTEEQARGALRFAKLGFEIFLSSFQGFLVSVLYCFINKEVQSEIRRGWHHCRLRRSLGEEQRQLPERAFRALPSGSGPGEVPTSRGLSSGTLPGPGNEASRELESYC
Experiment: In vitro potency, CRE luciferase reporter gene assay, whole BHK cells expressing human GIP receptor
Format: cell-based
Conditions: 0.2% HSA
Procedure: In Vitro Potency (CRE Luciferase; Whole Cells)
The in vitro potency is the measure of human GIP, GLP-1 or glucagon receptor activation, respectively, in a whole cell assay.
In vitro potency was determined by measuring the response of the human GIP, GLP-1 or glucagon receptor in a reporter gene assay in individual cell lines. […] When the respective receptor is activated it results in the production of cAMP, which in turn results in the luciferase protein being expressed. When assay incubation is completed the luciferase substrate (luciferin) is added and the enzyme converts luciferin to oxyluciferin to produce bioluminescence. The luminescence is measured as the readout for the assay.
The cells were derived from a clone containing the CRE luciferase element and were established by further transfection with the respective receptor to obtain the current clone.
The cells were cultured at 5% CO2 in Cell Culture Medium. They were aliquoted and stored in liquid nitrogen. The cells were kept in passage and were seeded out the day before each assay.
The Assay Buffer consisted of 1% ovalbumin and 0.1% Pluronic F-68 in Assay Medium with the addition of human serum albumin at twice the indicated concentrations.
1) Cells were plated at 5000 cells/well and incubated overnight.
2) Cells were washed three times in PBS.
3) Assay Medium (50 μl aliquot) with or without serum albumin was added to each well in the assay plate.
4) Stocks of the test compounds and reference compounds were diluted to a concentration of 0.2 μM in Assay Buffer. […] 8) The cells were washed three times with PBS plus some liquid in each well. 9) A 100 μl aliquot of steadylite plus reagent was added to each well of the assay plate (reagent was light sensitive). 10) Each assay plate was covered with aluminum foil to protect it from light and shaken for 30 min at room temperature. 11) Each assay plate was read in a microtiter plate reader. Calculations and Results
The data from the microtiter plate reader was transferred to GraphPad Prism software. The software performs a non-linear regression (log(agonist) vs response).
A minimum of two replicates was measured for each sample. The reported values are averages of the replicates.

Row | Molecule | EC50 [nM]
1 | CCCC[C@H](NC(=O)[C@H](C)NC(=O)[C@@H](NC(=O)[C@H](CO)NC(=O)[C@H](Cc1ccc(O)cc1)NC(=O)[C@H](CC(=O)O)NC(=O)[C@H](CO)NC(=O)[C@@H](NC(=O)[C@H](Cc1ccccc1)NC(=O)[C@@H](NC(=O)CNC(=O)[C@H](CCC(=O)O)NC(=O)C(C)(C)NC(=O)[C@@H](N)Cc1ccc(O)cc1)[C@@H](C)O)[C@@H](C)CC)[C@@H](C)CC)C(=O)N[C@@H](CC(=O)O)C(=O)N[C@@H](CCCCN)C(=O)N[C@H](C(=O)N[C@@H](Cc1c[nH]cn1)C(=O)N[C@@H](CCC(N)=O)C(=O)N[C@@H](CCC(=O)O)C(=O)N[C@@H](CC(=O)O)C(=O)N[C@@H](Cc1ccccc1)C(=O)N[C@H](C(=O)N[C@@H](CCCCNC(=O)CC[C@H](NC(=O)CC[C@H](NC(=O)CC[C@H](NC(=O)CC[C@H](NC(=O)C1CCC(CNC(=O)CCCCCCCCCCCCCCCCCCC(=O)O)CC1)C(=O)O)C(=O)O)C(=O)O)C(=O)O)C(=O)N[C@@H](Cc1c[nH]c2ccccc12)C(=O)N[C@@H](CC(C)C)C(=O)N[C@@H](CC(C)C)C(=O)N[C@@H](C)C(=O)N[C@@H](CCC(N)=O)C(=O)N[C@@H](CCCCN)C(=O)NCC(=O)O)C(C)C)[C@@H](C)CC (stereo partly drawn) [Compound 21, N{Epsilon-24}-[(4S)-4-carboxy-4-[[(4S)-4-carboxy-4-[[(4S)-4-carboxy-4-[[(4S)-4-carboxy-4-[[4-[(19-carboxynonadecanoylamino)methyl]cyclohexanecarbonyl]amino]butanoyl]-amino]butanoyl]amino]butanoyl]amino]butanoyl]-[Aib2,Nle14,Glu20,Lys24]-hGIP(1-31)] (H-Y[Aib]EGTFISDYSIA[Nle]DKIHQEDFVK([γGlu-γGlu-γGlu-γGlu-X1])WLLAQKG-OH) | 0.81
2 | CCCC[C@H](NC(=O)[C@H](C)NC(=O)[C@@H](NC(=O)[C@H](CO)NC(=O)[C@H](Cc1ccc(O)cc1)NC(=O)[C@H](CC(=O)O)NC(=O)[C@H](CO)NC(=O)[C@@H](NC(=O)[C@H](Cc1ccccc1)NC(=O)[C@@H](NC(=O)CNC(=O)[C@H](CCC(=O)O)NC(=O)C(C)(C)NC(=O)[C@@H](N)Cc1ccc(O)cc1)[C@@H](C)O)[C@@H](C)CC)[C@@H](C)CC)C(=O)N[C@@H](CC(=O)O)C(=O)N[C@@H](CCCCN)C(=O)N[C@H](C(=O)N[C@@H](CCCNC(=N)N)C(=O)N[C@@H](CCC(N)=O)C(=O)N[C@@H](CCC(N)=O)C(=O)N[C@@H](CC(=O)O)C(=O)N[C@@H](Cc1ccccc1)C(=O)N[C@H](C(=O)N[C@@H](CCCCNC(=O)CC[C@H](NC(=O)CC[C@H](NC(=O)CC[C@H](NC(=O)C1CCC(CNC(=O)CCCCCCCCCCCCCCCCCCC(=O)O)CC1)C(=O)O)C(=O)O)C(=O)O)C(=O)N[C@@H](Cc1c[nH]c2ccccc12)C(=O)N[C@@H](CC(C)C)C(=O)N[C@@H](CC(C)C)C(=O)N[C@@H](C)C(=O)N[C@@H](CCC(N)=O)C(=O)N[C@@H](CCCCN)C(=O)NCC(=O)N[C@@H](CCCCN)C(=O)N[C@@H](CCC(=O)O)C(=O)N[C@@H](CCC(=O)O)C(=O)N[C@@H](CC(=O)O)C(=O)N[C@@H](Cc1c[nH]c2ccccc12)C(=O)N[C@@H](CCCCN)C(=O)N[C@@H](Cc1c[nH]cn1)C(=O)N[C@@H](CC(N)=O)C(=O)N[C@H](C(=O)N[C@H](C(=O)N[C@@H](CCC(N)=O)C(=O)O)[C@@H](C)O)[C@@H](C)CC)C(C)C)[C@@H](C)CC (stereo partly drawn) [Compound 42, N{Epsilon-24}-[(4S)-4-carboxy-4-[[(4S)-4-carboxy-4-[[(4S)-4-carboxy-4-[[4-[(19-carboxynonadecanoylamino)methyl]cyclohexanecarbonyl]amino]butanoyl]amino]butanoyl]amino]butanoyl]-[Aib2,Nle14,Arg18,Lys24,Glu33,Glu34]-hGIP] | 0.022
3 | H-Y[Aib]EGTFISDYSIA[Nle]DKIHQQDFVK([γGlu-γGlu-γGlu-C18 diacid])WLLAQKGKENDWKHNITQ [Compound 33, N{Epsilon-24}-[(4S)-4-carboxy-4-[[(4S)-4-carboxy-4-[[(4S)-4-carboxy-4-(17-carboxyheptadecanoylamino)butanoyl]amino]butanoyl]amino]butanoyl]-[Aib2,Nle14,Lys24,Glu33]-hGIP] | 0.0213
4 | CCCC[C@H](NC(=O)[C@H](C)NC(=O)[C@@H](NC(=O)[C@H](CO)NC(=O)[C@H](Cc1ccc(O)cc1)NC(=O)[C@H](CC(=O)O)NC(=O)[C@H](CO)NC(=O)[C@@H](NC(=O)[C@H](Cc1ccccc1)NC(=O)[C@@H](NC(=O)CNC(=O)[C@H](CCC(=O)O)NC(=O)C(C)(C)NC(=O)[C@@H](N)Cc1ccc(O)cc1)[C@@H](C)O)[C@@H](C)CC)[C@@H](C)CC)C(=O)N[C@@H](CC(=O)O)C(=O)N[C@@H](C)C(=O)N[C@H](C(=O)N[C@@H](CCCNC(=N)N)C(=O)N[C@@H](CCC(N)=O)C(=O)N[C@@H](CCC(N)=O)C(=O)N[C@@H](CC(=O)O)C(=O)N[C@@H](Cc1ccccc1)C(=O)N[C@H](C(=O)N[C@@H](CCCCNC(=O)CC[C@H](NC(=O)CC[C@H](NC(=O)CC[C@H](NC(=O)C1CCC(CNC(=O)CCCCCCCCCCCCCCCCCCC(=O)O)CC1)C(=O)O)C(=O)O)C(=O)O)C(=O)N[C@@H](Cc1c[nH]c2ccccc12)C(=O)N[C@@H](CC(C)C)C(=O)N[C@@H](CC(C)C)C(=O)N[C@@H](C)C(=O)N[C@@H](CCC(N)=O)C(=O)N[C@@H](CCCCN)C(=O)NCC(=O)O)C(C)C)[C@@H](C)CC (stereo partly drawn) [Compound 14, N{Epsilon-24}-[(4S)-4-carboxy-4-[[(4S)-4-carboxy-4-[[(4S)-4-carboxy-4-[[4-[(19-carboxynonadecanoylamino)methyl]cyclohexanecarbonyl]amino]butanoyl]amino]-butanoyl]amino]butanoyl]-[Aib2,Nle14,Ala16,Arg18,Lys24]-hGIP(1-31)] (H-Y[Aib]EGTFISDYSIA[Nle]DAIRQQDFVK([γGlu-γGlu-γGlu-X1])WLLAQKG-OH) | 0.266
5 | CCCC[C@H](NC(=O)[C@H](C)NC(=O)[C@@H](NC(=O)[C@H](CO)NC(=O)[C@H](Cc1ccc(O)cc1)NC(=O)[C@H](CC(=O)O)NC(=O)[C@H](CO)NC(=O)[C@@H](NC(=O)[C@H](Cc1ccccc1)NC(=O)[C@@H](NC(=O)CNC(=O)[C@H](CCC(=O)O)NC(=O)C(C)(C)NC(=O)[C@@H](N)Cc1ccc(O)cc1)[C@@H](C)O)[C@@H](C)CC)[C@@H](C)CC)C(=O)N[C@@H](CC(=O)O)C(=O)N[C@@H](CCCCN)C(=O)N[C@H](C(=O)N[C@@H](CCCNC(=N)N)C(=O)N[C@@H](CCC(N)=O)C(=O)N[C@@H](CCC(N)=O)C(=O)N[C@@H](CC(=O)O)C(=O)N[C@@H](Cc1ccccc1)C(=O)N[C@H](C(=O)N[C@@H](CCCCNC(=O)COCCOCCNC(=O)COCCOCCNC(=O)CC[C@H](NC(=O)C1CCC(CNC(=O)CCCCCCCCCCCCCCCCCCC(=O)O)CC1)C(=O)O)C(=O)N[C@@H](Cc1c[nH]c2ccccc12)C(=O)N[C@@H](CC(C)C)C(=O)N[C@@H](CC(C)C)C(=O)N[C@@H](C)C(=O)N[C@@H](CCC(N)=O)C(=O)N[C@@H](CCCCN)C(=O)NCC(=O)N[C@@H](CCCCN)C(=O)N[C@@H](CCC(=O)O)C(=O)N[C@@H](CCC(=O)O)C(=O)N[C@@H](CC(=O)O)C(=O)N[C@@H](Cc1c[nH]c2ccccc12)C(=O)N[C@@H](CCCCN)C(=O)N[C@@H](Cc1c[nH]cn1)C(=O)N[C@@H](CC(N)=O)C(=O)N[C@H](C(=O)N[C@H](C(=O)N[C@@H](CCC(N)=O)C(=O)O)[C@@H](C)O)[C@@H](C)CC)C(C)C)[C@@H](C)CC (stereo partly drawn) [Compound 41, N{Epsilon-24}-[2-[2-[2-[[2-[2-[2-[[(4S)-4-carboxy-4-[[4-[(19-carboxynonadecanoyl-amino)methyl]cyclohexanecarbonyl]amino]butanoyl]amino]ethoxy]ethoxy]acetyl]amino]ethoxy]ethoxy]acetyl]-[Aib2,Nle14,Arg18,Lys24,Glu33,Glu34]-hGIP] | 0.014
6 | H-Y[Aib]EGTFISDYSIALDKIHQQDFVK([AEEA-AEEA-γGlu-C18 diacid])WLLAQKGKKNDWKHNITQ [Compound 45, N{Epsilon-24}-[2-[2-[2-[[2-[2-[2-[[(4S)-4-carboxy-4-(17-carboxyheptadecanoylamino)butanoyl]amino]ethoxy]ethoxy]acetyl]amino]ethoxy]ethoxy]acetyl]-[Aib2,Leu14,Lys24]-hGIP] | 0.056
